Key:
Conditions in all cases: 0.1 µM; binder
TGFBR2 = TGFBR2 (Homo sapiens, UniProt P37173)
MAP4K2 = MAP4K2 (Homo sapiens, UniProt Q12851)
ACVR2A = ACVR2A (Homo sapiens, UniProt P27037)
PIK3CA = PIK3CA (Homo sapiens, UniProt P42336)
PRKX = PRKX (Homo sapiens, UniProt P51817)
GRK1 = GRK1 (Homo sapiens, UniProt Q15835)
PIK3CA(H1047L) = PIK3CA(H1047L) (Homo sapiens, UniProt P42336, H1047L)
BRSK2 = BRSK2 (Homo sapiens, UniProt Q8IWQ3)
CAMK1G = CAMK1G (Homo sapiens, UniProt Q96NX5)
FLT3(ITD,F691L) = FLT3(ITD,F691L) (Homo sapiens, UniProt P36888, F691L/ITD)
EGFR(L861Q) = EGFR(L861Q) (Homo sapiens, UniProt P00533, L861Q)
TBK1 = TBK1 (Homo sapiens, UniProt Q9UHD2)
LIMK2 = LIMK2 (Homo sapiens, UniProt P53671)
AKT2 = AKT2 (Homo sapiens, UniProt P31751)
CDK5 = CDK5 (Homo sapiens, UniProt Q00535)
RET = RET (Homo sapiens, UniProt P07949)
CAMKK1 = CAMKK1 (Homo sapiens, UniProt Q8N5S9)
TESK1 = TESK1 (Homo sapiens, UniProt Q15569)
YSK4 = YSK4 (Homo sapiens, UniProt Q56UN5)
MEK6 = MEK6 (Homo sapiens, UniProt P52564)
AURKC = AURKC (Homo sapiens, UniProt Q9UQB9)
ERK1 = ERK1 (Homo sapiens, UniProt P27361)
BLK = BLK (Homo sapiens, UniProt P51451)
PIK3CA(E545A) = PIK3CA(E545A) (Homo sapiens, UniProt P42336, E545A)
IKK-epsilon = IKK-epsilon (Homo sapiens, UniProt Q14164)
MST4 = MST4 (Homo sapiens, UniProt Q9P289)
MARK2 = MARK2 (Homo sapiens, UniProt Q7KZI7)
AMPK-alpha1 = AMPK-alpha1 (Homo sapiens, UniProt Q13131)
TXK = TXK (Homo sapiens, UniProt P42681)
MAP3K1 = MAP3K1 (Homo sapiens, UniProt Q13233)
FES = FES (Homo sapiens, UniProt P07332)

BRSK2, sequence (Q8IWQ3 whole entry): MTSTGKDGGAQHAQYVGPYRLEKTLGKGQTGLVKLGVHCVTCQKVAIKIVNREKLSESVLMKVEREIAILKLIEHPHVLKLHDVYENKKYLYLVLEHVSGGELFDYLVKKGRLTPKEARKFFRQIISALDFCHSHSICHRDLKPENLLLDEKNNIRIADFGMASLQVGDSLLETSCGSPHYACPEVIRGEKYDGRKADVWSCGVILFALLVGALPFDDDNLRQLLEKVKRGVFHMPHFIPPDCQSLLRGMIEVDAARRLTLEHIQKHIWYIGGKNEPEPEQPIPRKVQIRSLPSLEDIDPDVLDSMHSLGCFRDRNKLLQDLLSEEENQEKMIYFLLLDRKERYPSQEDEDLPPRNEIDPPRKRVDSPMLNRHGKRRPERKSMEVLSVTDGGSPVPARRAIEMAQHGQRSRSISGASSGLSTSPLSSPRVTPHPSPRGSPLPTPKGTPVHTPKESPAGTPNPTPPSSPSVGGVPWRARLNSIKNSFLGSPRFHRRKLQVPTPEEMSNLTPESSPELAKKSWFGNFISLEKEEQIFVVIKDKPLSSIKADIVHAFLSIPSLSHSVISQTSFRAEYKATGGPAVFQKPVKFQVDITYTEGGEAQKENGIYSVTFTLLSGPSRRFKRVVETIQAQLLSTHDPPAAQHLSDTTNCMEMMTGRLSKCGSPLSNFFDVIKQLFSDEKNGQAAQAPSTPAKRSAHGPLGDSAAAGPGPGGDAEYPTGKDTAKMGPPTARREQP
RET, sequence (P07949 whole entry): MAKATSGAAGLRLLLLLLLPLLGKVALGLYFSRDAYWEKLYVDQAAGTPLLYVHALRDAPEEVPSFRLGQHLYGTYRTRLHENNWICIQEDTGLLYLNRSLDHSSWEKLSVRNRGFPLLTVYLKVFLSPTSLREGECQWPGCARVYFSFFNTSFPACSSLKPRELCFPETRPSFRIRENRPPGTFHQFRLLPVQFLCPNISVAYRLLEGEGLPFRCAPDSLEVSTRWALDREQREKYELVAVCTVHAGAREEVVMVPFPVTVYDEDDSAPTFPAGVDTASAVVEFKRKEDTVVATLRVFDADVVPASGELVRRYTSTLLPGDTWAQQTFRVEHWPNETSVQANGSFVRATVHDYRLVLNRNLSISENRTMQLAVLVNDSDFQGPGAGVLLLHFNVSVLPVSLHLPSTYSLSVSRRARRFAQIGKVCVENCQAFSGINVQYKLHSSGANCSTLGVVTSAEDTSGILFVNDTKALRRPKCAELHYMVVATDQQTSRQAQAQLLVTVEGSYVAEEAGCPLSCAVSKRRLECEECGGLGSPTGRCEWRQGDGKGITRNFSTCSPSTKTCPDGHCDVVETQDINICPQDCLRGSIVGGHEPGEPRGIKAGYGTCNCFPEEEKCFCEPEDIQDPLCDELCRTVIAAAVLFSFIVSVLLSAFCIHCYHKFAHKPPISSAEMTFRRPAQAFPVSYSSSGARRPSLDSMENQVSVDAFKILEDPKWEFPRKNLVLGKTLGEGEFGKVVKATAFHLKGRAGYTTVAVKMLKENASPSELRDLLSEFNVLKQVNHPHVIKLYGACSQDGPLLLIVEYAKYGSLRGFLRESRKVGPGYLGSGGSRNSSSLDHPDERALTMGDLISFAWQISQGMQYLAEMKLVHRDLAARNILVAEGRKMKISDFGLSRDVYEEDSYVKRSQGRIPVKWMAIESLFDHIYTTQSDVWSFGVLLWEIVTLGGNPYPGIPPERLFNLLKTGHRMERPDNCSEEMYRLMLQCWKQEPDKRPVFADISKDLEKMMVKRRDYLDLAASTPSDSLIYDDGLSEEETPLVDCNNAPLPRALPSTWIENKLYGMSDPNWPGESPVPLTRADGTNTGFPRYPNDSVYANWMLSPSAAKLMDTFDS
PRKX, sequence (P51817 whole entry): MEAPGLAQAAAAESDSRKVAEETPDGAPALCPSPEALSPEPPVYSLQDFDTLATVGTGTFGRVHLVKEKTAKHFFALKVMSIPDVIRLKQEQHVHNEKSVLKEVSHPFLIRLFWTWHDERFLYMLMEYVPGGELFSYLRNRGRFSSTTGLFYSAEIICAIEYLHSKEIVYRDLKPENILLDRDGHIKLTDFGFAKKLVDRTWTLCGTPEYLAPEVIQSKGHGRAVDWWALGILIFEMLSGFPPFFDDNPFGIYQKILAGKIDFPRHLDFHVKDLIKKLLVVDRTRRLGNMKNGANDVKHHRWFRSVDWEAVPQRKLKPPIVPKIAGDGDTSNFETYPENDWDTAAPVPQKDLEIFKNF
CAMK1G, sequence (Q96NX5 whole entry): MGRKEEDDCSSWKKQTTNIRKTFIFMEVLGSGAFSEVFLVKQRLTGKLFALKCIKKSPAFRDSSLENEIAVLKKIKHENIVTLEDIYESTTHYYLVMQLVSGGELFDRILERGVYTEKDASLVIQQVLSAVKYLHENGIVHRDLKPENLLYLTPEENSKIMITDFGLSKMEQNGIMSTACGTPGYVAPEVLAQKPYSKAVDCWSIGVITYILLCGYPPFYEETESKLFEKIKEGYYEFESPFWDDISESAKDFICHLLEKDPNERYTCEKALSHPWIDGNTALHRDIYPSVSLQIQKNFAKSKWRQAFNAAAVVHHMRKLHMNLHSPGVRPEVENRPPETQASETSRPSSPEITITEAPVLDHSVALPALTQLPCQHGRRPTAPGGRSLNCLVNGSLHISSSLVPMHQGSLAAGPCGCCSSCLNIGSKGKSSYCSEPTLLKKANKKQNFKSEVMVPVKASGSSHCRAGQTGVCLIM
YSK4, sequence (Q56UN5 whole entry): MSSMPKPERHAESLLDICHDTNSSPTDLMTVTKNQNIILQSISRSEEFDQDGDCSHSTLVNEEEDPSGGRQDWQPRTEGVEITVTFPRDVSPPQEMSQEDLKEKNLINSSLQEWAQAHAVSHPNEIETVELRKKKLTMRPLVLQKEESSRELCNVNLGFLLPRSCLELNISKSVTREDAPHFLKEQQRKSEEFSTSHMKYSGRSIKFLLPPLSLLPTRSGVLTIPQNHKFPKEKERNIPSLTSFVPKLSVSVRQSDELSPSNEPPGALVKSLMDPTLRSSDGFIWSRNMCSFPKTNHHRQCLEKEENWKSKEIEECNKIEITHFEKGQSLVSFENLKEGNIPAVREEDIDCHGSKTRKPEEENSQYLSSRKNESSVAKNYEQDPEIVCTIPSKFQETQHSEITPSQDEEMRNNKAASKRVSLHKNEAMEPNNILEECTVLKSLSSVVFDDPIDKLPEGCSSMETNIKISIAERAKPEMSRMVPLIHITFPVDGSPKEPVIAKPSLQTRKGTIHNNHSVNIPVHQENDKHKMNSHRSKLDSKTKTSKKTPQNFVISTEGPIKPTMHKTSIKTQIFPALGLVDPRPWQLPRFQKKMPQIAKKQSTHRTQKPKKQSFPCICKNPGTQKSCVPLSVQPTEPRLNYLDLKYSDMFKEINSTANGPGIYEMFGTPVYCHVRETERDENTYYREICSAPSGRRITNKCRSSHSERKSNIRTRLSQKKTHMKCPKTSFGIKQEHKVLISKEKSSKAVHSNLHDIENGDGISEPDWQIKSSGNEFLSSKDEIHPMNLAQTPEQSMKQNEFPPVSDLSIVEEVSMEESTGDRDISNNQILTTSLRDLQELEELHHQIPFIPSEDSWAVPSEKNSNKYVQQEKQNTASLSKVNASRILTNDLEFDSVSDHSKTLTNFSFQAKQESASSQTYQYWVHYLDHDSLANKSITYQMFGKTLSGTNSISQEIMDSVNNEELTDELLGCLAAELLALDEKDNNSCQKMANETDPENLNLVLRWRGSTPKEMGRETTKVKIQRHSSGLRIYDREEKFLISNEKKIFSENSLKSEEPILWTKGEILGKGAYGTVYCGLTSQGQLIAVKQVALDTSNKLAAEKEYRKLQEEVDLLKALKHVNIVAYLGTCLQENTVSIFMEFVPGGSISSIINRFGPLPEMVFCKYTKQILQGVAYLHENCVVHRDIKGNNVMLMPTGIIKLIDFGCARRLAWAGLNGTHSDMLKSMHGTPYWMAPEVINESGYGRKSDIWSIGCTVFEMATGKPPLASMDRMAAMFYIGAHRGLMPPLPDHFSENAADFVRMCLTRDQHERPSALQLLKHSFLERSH
MARK2, sequence (Q7KZI7 whole entry): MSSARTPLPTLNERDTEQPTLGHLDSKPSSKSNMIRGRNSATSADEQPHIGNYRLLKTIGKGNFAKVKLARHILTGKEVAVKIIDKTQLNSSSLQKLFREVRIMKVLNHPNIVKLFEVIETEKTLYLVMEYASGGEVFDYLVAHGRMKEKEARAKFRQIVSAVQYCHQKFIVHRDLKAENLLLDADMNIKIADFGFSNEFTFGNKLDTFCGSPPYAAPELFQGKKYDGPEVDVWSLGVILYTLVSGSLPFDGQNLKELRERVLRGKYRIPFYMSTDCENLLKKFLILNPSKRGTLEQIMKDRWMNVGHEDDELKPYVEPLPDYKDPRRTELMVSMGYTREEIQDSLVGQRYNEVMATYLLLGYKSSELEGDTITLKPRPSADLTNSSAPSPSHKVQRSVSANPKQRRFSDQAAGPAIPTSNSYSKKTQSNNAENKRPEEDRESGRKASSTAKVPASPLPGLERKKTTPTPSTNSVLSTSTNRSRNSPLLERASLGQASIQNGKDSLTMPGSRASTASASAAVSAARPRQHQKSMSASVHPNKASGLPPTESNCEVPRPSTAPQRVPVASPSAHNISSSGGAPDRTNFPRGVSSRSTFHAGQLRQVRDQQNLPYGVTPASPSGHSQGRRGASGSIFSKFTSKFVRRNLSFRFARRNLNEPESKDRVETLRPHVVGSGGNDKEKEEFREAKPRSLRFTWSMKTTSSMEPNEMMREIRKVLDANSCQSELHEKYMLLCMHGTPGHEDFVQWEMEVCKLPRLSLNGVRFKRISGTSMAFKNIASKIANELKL

Compound: CNc1ncc2cc(-c3ccc(-c4cccc(C)n4)cc3Cl)c(=O)n(C[C@H]3OC[C@H](N)CO3)c2n1 [compound 6, G-5555]
- Percent Control (TGFBR2): 100%
- Percent Control (MAP4K2): 63%
- Percent Control (ACVR2A): 100%
- Percent Control (PIK3CA): 94%
- Percent Control (PRKX): 100%
- Percent Control (GRK1): 100%
- Percent Control (PIK3CA(H1047L)): 100%
- Percent Control (BRSK2): 100%
- Percent Control (CAMK1G): 100%
- Percent Control (FLT3(ITD,F691L)): 56%
- Percent Control (EGFR(L861Q)): 100%
- Percent Control (TBK1): 100%
- Percent Control (LIMK2): 100%
- Percent Control (AKT2): 100%
- Percent Control (CDK5): 100%
- Percent Control (RET): 96%
- Percent Control (CAMKK1): 100%
- Percent Control (TESK1): 83%
- Percent Control (YSK4): 70%
- Percent Control (MEK6): 80%
- Percent Control (AURKC): 37%
- Percent Control (ERK1): 100%
- Percent Control (BLK): 100%
- Percent Control (PIK3CA(E545A)): 88%
- Percent Control (IKK-epsilon): 100%
- Percent Control (MST4): 0.5%
- Percent Control (MARK2): 100%
- Percent Control (AMPK-alpha1): 95%
- Percent Control (TXK): 100%
- Percent Control (MAP3K1): 81%
- Percent Control (FES): 100%

Source: publication doi:10.1101/2021.04.08.439011v1 (biorxiv, 2021)
